Source: patent US9273003B2, “Methods of treating lymphoma and rheumatoid arthritis with cyclopentyl (2S)-cyclohexyl[({6-[3-(hydroxyamino)-3-oxopropyl]pyridin-3-yl}methyl)amino]acetate” (GlaxoSmithKline Intellectual Property Development Limited, priority 2006, dated 2016)
pIC50: −log10 of the molar value.

What was measured:
[1] = molecular target: histone deacetylase activity (HeLa nuclear extract); assay: HDAC fluorescent activity assay (Fluor de Lys, Biomol); assay type: biochemical; details: IC50 allocated to ranges, read-out: HDAC activity
Method: The ability of compounds to inhibit histone deacetylase activities was measured using the commercially available HDAC fluorescent activity assay from Biomol. In brief, the Fluor de Lys™ substrate, a lysine with an epsilon-amino acetylation, is incubated with the source of histone deacetylase activity (HeLa nuclear extract) in the presence or absence of inhibitor. Deacetylation of the substrate sensitises the substrate to Fluor de Lys™ developer, which generates a fluorophore. Thus, incubation of the substrate with a source of HDAC activity results in an increase in signal that is diminished in the presence of an HDAC inhibitor.
Data are expressed as a percentage of the control, measured in the absence of inhibitor, with background signal being subtracted from all samples, as follows: % activity=[(S^i−B)/(S^o−B)]×100 where S^i is the signal in the presence of substrate, enzyme and inhibitor, S^o is the signal in the presence of substrate, enzyme and the vehicle in which the inhibitor is dissolved, and B is the background signal measured in the absence of enzyme.
(§1) IC50 values were determined by non-linear regression analysis, after fitting the results of eight data points to the equation for sigmoidal dose response with variable slope (% activity against log concentration of Compound), using Graphpad Prism software.
Histone deacetylase activity from crude nuclear extract derived from HeLa cells was used for screening. The preparation, purchased from 4C (Seneffe, Belgium), was prepared from HeLa cells harvested whilst in exponential growth phase. The nuclear extract was prepared according to the methodology described by J. D. Dignam, Nucl. Acid. Res., 1983, 11, 1475-1489, snap frozen in liquid nitrogen and stored at −80° C. The final buffer composition was 20 mM Hepes, 100 mM KCl, 0.2 mM EDTA, 0.5 mM DTT, 0.2 mM PMSF and 20% (v/v) glycerol.

U937 cells = assay: U937 cell inhibition assay (WST-1 cell viability); assay type: cell-based; details: Homo sapiens, U-937; U937 cells; IC50 allocated to ranges; read-out: U937 activity
Method: (§2) Cancer cell lines (U937 and HUT) growing in log phase were harvested and seeded at 1000-2000 cells/well (100 μl final volume) into 96-well tissue culture plates. Following 24 h of growth cells were treated with Compound. Plates were then re-incubated for a further 72-96 h before a WST-1 cell viability assay was conducted according to the suppliers (Roche Applied Science) instructions.
(§3) Data were expressed as a percentage inhibition of the control, measured in the absence of inhibitor, as follows: % inhibition=100−[(S^i/S^o)×100] where S^i is the signal in the presence of inhibitor and S^o is the signal in the presence of DMSO.
(§4) Dose response curves were generated from 8 concentrations (top final concentration 10 μM, with 3-fold dilutions), using 6 replicates.
(§5) IC50 values were determined by non-linear regression analysis, after fitting the results to the equation for sigmoidal dose response with variable slope (% activity against log concentration of Compound), using Graphpad Prism software.

HUT78 cells = assay: HUT cell inhibition assay (WST-1 cell viability); assay type: cell-based; details: Homo sapiens; HUT78 cells; IC50 allocated to ranges; read-out: HUT activity
Method: as §2, §3, §4, §5

HeLa cells = assay: HeLa cell inhibition assay (sulphorhodamine B cell viability); assay type: cell-based; details: Homo sapiens, IC50 allocated to ranges
Method: HeLa cells growing in log phase were harvested and seeded at 1000 cells/well (200 μl final volume) into 96-well tissue culture plates. Following 24 h of cell growth cells were treated with compounds (final concentration of 20 μM). Plates were then re-incubated for a further 72 h before a sulphorhodamine B (SRB) cell viability assay was conducted according to the methodology described by Skehan et al, J. Natl. Canc. Inst., 1990, 82, 1107-1112.
Data were expressed as a percentage inhibition of the control, measured in the absence of inhibitor, as follows:— % inhibition=100−[(S^i/S^o)×100] where S^i is the signal in the presence of inhibitor and S^o is the signal in the presence of DMSO.
as §1

SMILES	pIC50 [1]	pIC50 (U937 cells)	pIC50 (HUT78 cells)	pIC50 (HeLa cells)
CC(C)C[C@H](NCc1ccc(/C=C/C(=O)NO)cc1)C(=O)OC1CCCC1 [Example 15, Cyclopentyl N-{4-[(1E)-3-(hydroxyamino)-3-oxoprop-1-en-1-yl]benzyl}-L-leucinate]	> 7.00	> 6.48	> 6.48	5.48 to 6.48
CC(C)C[C@H](NS(=O)(=O)c1cccc(/C=C/C(=O)NO)c1)C(=O)OC1CCCC1 [Example 3, Cyclopentyl N-({3-[(1E)-3-(hydroxyamino)-3-oxoprop-1-en-1-yl]phenyl}sulfonyl)-L-leucinate]	> 7.00	5.48 to 6.48	5.48 to 6.48	5.48 to 6.48
O=C(/C=C/c1cccc(S(=O)(=O)N[C@H](C(=O)OC2CCCC2)C2CCCCC2)c1)NO [Example 2, Cyclopentyl (2S)-cyclohexyl[({3-[(1E)-3-(hydroxyamino)-3-oxoprop-1-en-1-yl]phenyl}sulfonyl)amino]acetate]	> 7.00	5.48 to 6.48	5.48 to 6.48	5.48 to 6.48
O=C(/C=C/c1ccc(CN[C@H](C(=O)OC2CC3CCC2C3)C2CCCCC2)cc1)NO (stereo partly drawn) [Example 26, Bicyclo[2.2.1]hept-2-yl (2S)-cyclohexyl({4-[(1E)-3-(hydroxyamino)-3-oxoprop-1-en-1-yl]benzyl}amino)acetate]	6.00 to 7.00	> 6.48	5.48 to 6.48	5.48 to 6.48
O=C(/C=C/c1ccc(CN2CCC(CN[C@H](C(=O)OC3CCCC3)C3CCCCC3)CC2)cc1)NO [Example 83, Cyclopentyl (2S)-cyclohexyl{[(1-{4-[(1E)-3-(hydroxyamino)-3-oxoprop-1-en-1-yl]benzyl}piperidin-4-yl)methyl]amino}acetate]	6.00 to 7.00	5.48 to 6.48	> 6.48	5.48 to 6.48
O=C(/C=C/c1ccc(CN2CCC(N[C@H](C(=O)OC3CCCC3)C3CCCCC3)CC2)cc1)NO [Example 80, Cyclopentyl (2S)-cyclohexyl[(1-{4-[(1E)-3-(hydroxyamino)-3-oxoprop-1-en-1-yl]benzyl}piperidin-4-yl)amino]acetate]	6.00 to 7.00	> 6.48	> 6.48	5.48 to 6.48
CC(C)C[C@H](NCCCOc1ccc(/C=C/C(=O)NO)cc1)C(=O)OC1CCCC1 [Example 11, Cyclopentyl N-(3-{4-[(1E)-3-(hydroxyamino)-3-oxoprop-1-en-1-yl]phenoxy}propyl)-L-leucinate]	6.00 to 7.00	5.48 to 6.48	5.48 to 6.48	< 5.48
CC(C)C[C@H](NCc1ccc(CCC(=O)NO)cc1)C(=O)OCCN(C)C [Example 38, 2-(Dimethylamino)ethyl N-{4-[3-(hydroxyamino)-3-oxopropyl]benzyl}-L-leucinate]	6.00 to 7.00	5.48 to 6.48	< 5.48	< 5.48
O=C(/C=C/c1cccc(S(=O)(=O)N[C@H](C(=O)OC2CCCC2)c2ccccc2)c1)NO [Example 1, cyclopentyl (2S)-[({3-[(1E)-3-(hydroxyamino)-3-oxoprop-1-en-1-yl]phenyl}sulfonyl)amino](phenyl)acetate]	6.00 to 7.00	< 5.48	< 5.48	< 5.48
O=C(/C=C/c1ccc(C(=O)N[C@H](C(=O)OC2CCCC2)C2CCCCC2)cc1)NO [Example 7, Cyclopentyl (2S)-cyclohexyl({4-[(1E)-3-(hydroxyamino)-3-oxoprop-1-en-1-yl]benzoyl}amino)acetate]	6.00 to 7.00	5.48 to 6.48	5.48 to 6.48	< 5.48
CCOC(=O)[C@@H](NCc1ccc(/C=C/C(=O)NO)cc1)C1CCCCC1 [Example 21, Ethyl (2S)-cyclohexyl({4-[(1E)-3-(hydroxyamino)-3-oxoprop-1-en-1-yl]benzyl}amino)acetate]	> 7.00	> 6.48	> 6.48	5.48 to 6.48
O=C(/C=C/c1cccc(C(=O)N[C@H](C(=O)OC2CCCC2)C2CCCCC2)c1)NO [Example 5, Cyclopentyl (2S)-cyclohexyl({3-[(1E)-3-(hydroxyamino)-3-oxoprop-1-en-1-yl]benzoyl}amino)acetate]	> 7.00	5.48 to 6.48	5.48 to 6.48	5.48 to 6.48
CC(C)(C)OC[C@@H](NCc1ccc(/C=C/C(=O)NO)cc1)C(=O)OC1CCCC1 [Example 20, Cyclopentyl O-tert-butyl-N-{4-[(1E)-3-(hydroxyamino)-3-oxoprop-1-en-1-yl]benzyl}-D-serinate]	6.00 to 7.00	> 6.48	5.48 to 6.48	< 5.48
O=C(/C=C/c1ccc(CN[C@H](C(=O)OCCN2CCOCC2)C2CCCCC2)cn1)NO [Example 56, 2-Morpholin-4-ylethyl (2S)-cyclohexyl[({6-[(1E)-3-(hydroxyamino)-3-oxoprop-1-en-1-yl]pyridin-3-yl}methyl)amino]acetate]	> 7.00	> 6.48	> 6.48	5.48 to 6.48
CC(C)(C)OC[C@H](NCc1ccc(/C=C/C(=O)NO)cc1)C(=O)OC1CCCC1 [Example 16, Cyclopentyl O-tert-butyl-N-{4-[(1E)-3-(hydroxyamino)-3-oxoprop-1-en-1-yl]benzyl}-L-serinate]	6.00 to 7.00	5.48 to 6.48	5.48 to 6.48	< 5.48
O=C(/C=C/c1ccc(CN[C@H](C(=O)OC2Cc3ccccc3C2)C2CCCCC2)cn1)NO [Example 55, 2,3-Dihydro-1H-inden-2-yl (2S)-cyclohexyl[({6-[(1E)-3-(hydroxyamino)-3-oxoprop-1-en-1-yl]pyridin-3-yl}methyl)amino]acetate]	> 7.00	> 6.48	> 6.48	5.48 to 6.48
CC(C)(C)OC[C@H](NCc1ccc(CNCc2cccc(/C=C/C(=O)NO)c2)cc1)C(=O)OC1CCCC1 [Example 74, Cyclopentyl O-tert-butyl-N-{4-[({3-[(1E)-3-(hydroxyamino)-3-oxoprop-1-en-1-yl]benzyl}amino)methyl]benzyl}-L-serinate]	–	> 6.48	5.48 to 6.48	< 5.48
COC(=O)[C@H](Cc1c[nH]c2ccccc12)NCc1ccc(/C=C/C(=O)NO)cc1 [Example 29, Methyl N-{4-[(1E)-3-(hydroxyamino)-3-oxoprop-1-en-1-yl]benzyl}-L-tryptophanate]	–	5.48 to 6.48	5.48 to 6.48	5.48 to 6.48
O=C(/C=C/c1ccc(CN[C@H](C(=O)OCc2ccccc2)C2CCCCC2)cc1)NO [Example 24, Benzyl (2S)-cyclohexyl({4-[(1E)-3-(hydroxyamino)-3-oxoprop-1-en-1-yl]benzyl}amino)acetate]	> 7.00	> 6.48	> 6.48	–
O=C(CCc1ccc(CN[C@H](C(=O)OC2CCCC2)C2CCCCC2)cn1)NO [Example 62, Cyclopentyl (2S)-cyclohexyl[({6-[3-(hydroxyamino)-3-oxopropyl]pyridin-3-yl}methyl)amino]acetate]	> 7.00	> 6.48	5.48 to 6.48	–
CC(C)[C@H](NCc1ccc(CCC(=O)NO)cc1)C(=O)OC(C)(C)C [Example 47, tert-Butyl N-{4-[3-(hydroxyamino)-3-oxopropyl]benzyl}-L-valinate]	< 6.00	< 5.48	5.48 to 6.48	–
O=C(CCc1cccc(CN[C@H](C(=O)OC2CCCC2)C2CCCCC2)c1)NO [Example 50, Cyclopentyl (2S)-cyclohexyl({3-[3-(hydroxyamino)-3-oxopropyl]benzyl}amino)acetate]	6.00 to 7.00	5.48 to 6.48	5.48 to 6.48	–
CC(N[C@H](C(=O)OC1CCCC1)C1CCCCC1)c1ccc(/C=C/C(=O)NO)cc1 (stereo partly shown) [Example 84]	< 6.00	< 5.48	< 5.48	–
